Experiments:
[1] = test system: Lactobacillus johnsonii (CNCM I-1225); assay: Gastric small-intestinal model (TIM), hydrolysis of 5-CQA during simulated digestion; conditions: 6 h digestion, with addition of L. johnsonii
Experimental: The gastric small-intestinal model, TIM-1, comprises four connected compartments that represent the stomach, duodenum, jejunum and ileum, respectively. Each compartment consists of a glass outer wall with a flexible inner wall. The flexible wall is surrounded by water at 37° C. to squeeze the walls, which ensures mixing of the food with the secreted enzymes by peristaltic movements in the gastro-intestinal tract.
The experiments in the model were performed under average physiological conditions of the gastro-intestinal tract. During the experiments, the temperature was kept at 37° C. and salivary, gastric, biliary, and pancreatic secretions were simulated. The digestion process in the model was monitored for 6 h. During the first 3.5 h, the gastric content was gradually delivered into the small intestine “pyloric valve”. […]
4.5 g of NESCAFE PROTECT® (a co-extract of green and roasted coffee beans) were dissolved in 310 ml acetate buffer (20 mM, pH 6.5). […] After 6 h experiment, the residues from the compartments of the stomach, duodenum, jejunum and ileum were analysed to calculate the mass balance of chlorogenic acids. […] After 6 h, the residues from the compartments of the stomach, duodenum, jejunum and ileum were analysed by HPLC to calculate the mass balance of 5-caffeoyl quinic acid.

[2] = test system: Lactobacillus johnsonii (CNCM I-1225) extract (lysed cells); assay: Treatment of NESCAFE PROTECT with L. johnsonii extract (lysed cells), HPLC; type: biochemical
Experimental: Cells of L. johnsonii (CNCM I-1225) were grown (7.0 E08 cfu/ml) and centrifuged (5000 g, 10 min), the pellets were resuspended in phosphate buffer (50 mM, pH 7.0) at a concentration of 0.61 g/ml. The cells were then lysed using the glass-beads method. 600 μl of cells preparation were put in screw-cap tubes and 600 μl of glass-beads were added at 0° C. The tubes were then put into a Mini-Beadbeater for 1 min of intense shaking, cooled in ice, and put another 1 min in the Mini-Beadbeater. […] Samples were withdrawn at different reaction times, centrifuged (3000 g, 5 min), filtered through 0.45 μm pore size syringe filters (Millipore SLHA 025 BS) and analysed by HPLC.
(§1) Coffee samples were diluted to 1% w/w and analyzed by RP-HPLC on a CC 250/4 Nucleosil 100-5-C18 column (Macherey-Nagel). The eluent system was Millipore water, 0.1% TFA and CH3CN at a flow rate of 1 mL/min. The method allowed the simultaneous determination of caffeoyl quinic acids (CQA), feruloyl quinic acids (FQA), di-caffeoyl quinic acids (diCQA), feruloyl quinic acid-lactones, caffeic acid (CA) and ferulic acid (FA) (absorbance at 325 nm) using external standard calibration curves. Results were expressed relative to the reference at time 0 (t0) or to the reference at the same time without bacteria.

[3] = test system: Lactobacillus johnsonii (CNCM I-1225); assay: Treatment of coffee extracts with bacteria cells (L. johnsonii), HPLC
Experimental: as §1
(§2) Tested strains were harvested (centrifugation at 5000 g for 10 min) after having well reached stationary phase, corresponding to 16 hours of incubation in culture medium at 37° C. in anaerobic atmosphere without agitation. For a first activation of the strains, frozen stock cultures were inoculated in fresh media and grown overnight. This pre-culture was used to inoculate the culture.
(§3) After culture of bacteria and centrifugation, the pellets were resuspended in phosphate buffer (pH 7.0) at a concentration of 0.61 g/ml. To 200 μl of this cells preparation, 800 μl of a coffee solution (3%) was added and the mixture was incubated at 37° C. for 4 h, 16 h and 24 h.

[4] = test system: spray-dried preparation of Lactobacillus johnsonii (CNCM I-1225); assay: Treatment of NESCAFE PROTECT with spray-dried preparation of L. johnsonii, HPLC
Experimental: (§4) To this solution, 10 mg of a spray-dried preparation of Lactobacillus johnsonii (CNCM I-1225) (3.3 E9 cfu/g) were added. The mixture was then incubated at 37° C. and samples were withdrawn at different reaction times. After centrifugation (3000 g, 5 min) and filtration (0.45 μm pore size syringe filters, Millipore SLHA 025 BS) the samples were analysed by HPLC.
as §1

[5] = test system: concentrated preparation of Lactobacillus johnsonii (CNCM I-1225); assay: Treatment of NESCAFE with concentrated preparation of L. johnsonii, HPLC
Experimental: 400 mg of NESCAFE SPECIAL FILTRE® (a dried extract of roasted coffee beans) were dissolved in 1 ml of boiling water and the solution was cooled to 37° C. at room temperature. To 250 μl of this coffee solution, different amounts of concentrated preparation of Lactobacillus johnsonii (50 μl, 100 μl, 350 μl, 750 μl) were added and the volume was adjusted to 1 ml with water. The mixtures were than incubated at 37° C. for 2 h and 4 h. After centrifugation (3000 g, 5 min) and filtration the samples were analysed by HPLC.
as §1

[6] = test system: Bifidobacterium lactis BB12 (CNCM I-3446); assay: Treatment of coffee extracts with bacteria cells (B. lactis), HPLC
Experimental: as §1, §2, §3

[7] = test system: Lactobacillus johnsonii (CNCM I-1225) fresh cells; assay: Treatment of NESCAFE PROTECT with L. johnsonii fresh cells, HPLC of chlorogenic and phenolic acids
Experimental: Cells of L. johnsonii (CNCM I-1225) were grown (7.0 E08 cfu/ml) and centrifuged (5000 g, 10 min), the pellets were resuspended in phosphate buffer (50 mM, pH 7.0) at a concentration of 0.61 g/ml. […] Samples were withdrawn at different reaction times, centrifuged (3000 g, 5 min) and filtered through 0.45 μm pore size syringe filters (Millipore SLHA 025 BS) and analysed by HPLC.
A reaction control was run in parallel under the same reaction conditions but without bacteria.
as §1

Chlorogenate esterase = assay: Incubation of coffee extracts with chlorogenate esterase, HPLC; type: biochemical, Aspergillus japonicus
Experimental: as §1
Chlorogenate esterase (24 U/g), derived from Aspergillus japonicus (Kikkoman, Japan). Tannase from Aspergillus oryzae (Kikkoman, Japan) Preparation of Bacteria Cells
A solution of chlorogenate esterase (25 mg) in 200 μl phosphate buffer (pH 7.0) was added to 800 μl of a coffee solution (3%). The mixture was then incubated at 37° C. for 4 h, 16 h and 24 h. After reaction time, the enzymatic activity was stopped by heat treatment (3 min, 90° C.) and the mixture was filtered before analysis.

[8] = test system: spray-dried preparation of Lactobacillus johnsonii (CNCM I-1225); assay: Treatment of green coffee extract with spray-dried preparation of L. johnsonii, HPLC
Experimental: as §4, with “30 mg of a dried green coffee extract was dissolved in 1 ml phosphate buffer (50 mM, pH 7.0) or in 1 ml water. To” for “To”, “johnsonii” for “johnsonii (CNCM I-1225)”, “cfu/g) was” for “cfu/g) were”
as §1

For `O=C(/C=C/c1ccc(O)c(O)c1)O[C@@H]1C[C@@](O)(C(=O)O)C[C@@H](O)[C@@H]1O` [5-CQA, 5-caffeoyl quinic acid], the “% hydrolysis of 5-CQA (% hydrolysed of total 5-CQA present in the samples)” value [1] was 48%.
feruloyl quinic acids [FQA] was tested, and the “Concentration in % relative to untreated reference at t = 0” value ([2]; 2 h, cell preparation 100.0 uL) was 36%, the “Concentration in % relative to untreated reference at t = 0” value ([2]; 2 h, cell preparation 350.0 uL) was 15% and the “Concentration in % relative to untreated reference at t = 0” value ([2]; 6 h, cell preparation 100.0 uL) was 18%. The “Concentration in % relative to untreated reference at t = 0” value ([2]; 6 h, cell preparation 350.0 uL) was 11%, the “% relative to untreated control at t = 0” value ([3]; NESCAFE PROTECT + Lactobacillus johnsonii, 4 h) was 42% and the “% relative to untreated control at t = 0” value ([3]; NESCAFE PROTECT + Lactobacillus johnsonii, 16 h) was 21%. The “% relative to untreated control at t = 0” value ([3]; NESCAFE PROTECT + Lactobacillus johnsonii, 24 h) was 20%, the “% relative to untreated control at t = 0” value ([3]; green coffee extract + Lactobacillus johnsonii, 4 h) was 49% and the “% relative to untreated control at t = 0” value ([3]; green coffee extract + Lactobacillus johnsonii, 16 h) was 15%. For the same compound, the “% relative to untreated control at t = 0” value ([3]; green coffee extract + Lactobacillus johnsonii, 24 h) was 15%, the “% relative to untreated control at t = 0” value ([4]; 2 h) was 82% and the “% relative to untreated control at t = 0” value ([4]; 6 h) was 60%. The “% relative to untreated control at t = 0” value ([4]; 24 h) was 34%, the “% relative to untreated control at t = 0” value ([5]; cell amount 50 μL/1 mL, 2 h) was 90% and the “% relative to untreated control at t = 0” value ([5]; cell amount 50 μL/1 mL, 4 h) was 89%. The “% relative to untreated control at t = 0” value ([5]; cell amount 100 μL/1 mL, 2 h) was 82%, the “% relative to untreated control at t = 0” value ([5]; cell amount 100 μL/1 mL, 4 h) was 74% and the “% relative to untreated control at t = 0” value ([5]; cell amount 350 μL/1 mL, 2 h) was 61%. For the same compound, the “% relative to untreated control at t = 0” value ([5]; cell amount 350 μL/1 mL, 4 h) was 53%, the “% relative to untreated control at t = 0” value ([5]; cell amount 750 μL/1 mL, 2 h) was 41% and the “% relative to untreated control at t = 0” value ([5]; cell amount 750 μL/1 mL, 4 h) was 37%. For the same compound, the “% relative to untreated control at t = 0” value ([6]; NESCAFE PROTECT + Bifidobacterium lactis, 4 h) was 54%, the “% relative to untreated control at t = 0” value ([6]; NESCAFE PROTECT + Bifidobacterium lactis, 16 h) was 23% and the “% relative to untreated control at t = 0” value ([6]; NESCAFE PROTECT + Bifidobacterium lactis, 24 h) was 20%. For the same compound, the “% relative to untreated control at t = 0” value ([6]; green coffee extract + Bifidobacterium lactis, 4 h) was 33%, the “% relative to untreated control at t = 0” value ([6]; green coffee extract + Bifidobacterium lactis, 16 h) was 12% and the “% relative to untreated control at t = 0” value ([6]; green coffee extract + Bifidobacterium lactis, 24 h) was 6%. For the same compound, the “Concentration in % relative to untreated reference at t = 0” value ([7]; 6 h, cell preparation 100 uL) was 42%, the “Concentration in % relative to untreated reference at t = 0” value ([7]; 6 h, cell preparation 350 uL) was 17% and the “Concentration in % relative to untreated reference at t = 0” value ([7]; 6 h, cell preparation 750 uL) was 8%. The “Concentration in % relative to untreated reference at t = 0” value ([7]; 24 h, cell preparation 100 uL) was 17%, the “Concentration in % relative to untreated reference at t = 0” value ([7]; 24 h, cell preparation 350 uL) was 4% and the “Concentration in % relative to untreated reference at t = 0” value ([7]; 24 h, cell preparation 750 uL) was 0%. For the same compound, the “% relative to untreated control at t = 0” value (Chlorogenate esterase; NESCAFE PROTECT + Chlorogenate esterase, 4 h) was 54%, the “% relative to untreated control at t = 0” value (Chlorogenate esterase; NESCAFE PROTECT + Chlorogenate esterase, 16 h) was 15% and the “% relative to untreated control at t = 0” value (Chlorogenate esterase; NESCAFE PROTECT + Chlorogenate esterase, 24 h) was 14%. The “% relative to untreated control at t = 0” value (Chlorogenate esterase; green coffee extract + Chlorogenate esterase, 4 h) was 73%, the “% relative to untreated control at t = 0” value (Chlorogenate esterase; green coffee extract + Chlorogenate esterase, 16 h) was 24% and the “% relative to untreated control at t = 0” value (Chlorogenate esterase; green coffee extract + Chlorogenate esterase, 24 h) was 23%. For the same compound, the “% relative to untreated control at t = 0” value ([8]; 4 h) was 79%, the “% relative to untreated control at t = 0” value ([8]; 6 h) was 71% and the “% relative to untreated control at t = 0” value ([8]; 16 h) was 48%. For the same compound, the “% relative to untreated control at t = 0” value ([8]; 24 h) was 52%.
